# Results reported in article PMC12514842, “Ligand binding Pro‐miscuity of acylpeptide hydrolase, structural analysis of a detoxifying serine hydrolase” (Protein Science : A Publication of the Protein Society, 2025).
# Key:
# [1] = biological target: T1, pAPEH (porcine liver acylpeptide hydrolase, acylaminoacyl-peptidase, AAP) (Sus scrofa, UniProt P19205); assay type: binding
# T1 construct: gene APEH; native, purified from porcine liver; homotetramer; catalytic Ser587, Asp675, His707
# T1 sequence (P19205 1-732): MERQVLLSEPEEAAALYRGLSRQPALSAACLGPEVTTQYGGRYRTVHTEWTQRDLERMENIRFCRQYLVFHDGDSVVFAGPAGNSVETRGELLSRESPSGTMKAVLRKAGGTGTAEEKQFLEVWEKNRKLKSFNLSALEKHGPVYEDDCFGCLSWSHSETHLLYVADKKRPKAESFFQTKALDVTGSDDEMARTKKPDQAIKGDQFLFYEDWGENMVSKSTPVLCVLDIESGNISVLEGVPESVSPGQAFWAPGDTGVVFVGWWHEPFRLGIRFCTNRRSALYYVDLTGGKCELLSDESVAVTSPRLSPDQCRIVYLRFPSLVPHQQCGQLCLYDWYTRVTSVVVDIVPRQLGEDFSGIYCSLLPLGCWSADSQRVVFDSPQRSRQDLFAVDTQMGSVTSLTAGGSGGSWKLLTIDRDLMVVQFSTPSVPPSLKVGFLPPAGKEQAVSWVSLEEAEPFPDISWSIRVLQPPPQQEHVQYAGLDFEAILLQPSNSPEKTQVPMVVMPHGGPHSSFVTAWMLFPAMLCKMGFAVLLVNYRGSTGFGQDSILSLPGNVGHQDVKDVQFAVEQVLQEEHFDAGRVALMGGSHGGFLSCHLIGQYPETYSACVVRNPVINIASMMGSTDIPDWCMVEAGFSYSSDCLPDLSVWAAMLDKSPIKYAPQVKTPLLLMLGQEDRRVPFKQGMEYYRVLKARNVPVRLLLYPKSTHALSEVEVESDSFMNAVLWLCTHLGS
# [2] = biological target: T2, PhAPEH (PhAAP) (Pyrococcus horikoshii, UniProt O58323); assay: hydrolysis of p-nitroanilide substrate; assay type: biochemical
# T2 construct: gene PH0594; produced by the authors; details only in Data S1 chapter II
# T2 sequence (O58323 1-622): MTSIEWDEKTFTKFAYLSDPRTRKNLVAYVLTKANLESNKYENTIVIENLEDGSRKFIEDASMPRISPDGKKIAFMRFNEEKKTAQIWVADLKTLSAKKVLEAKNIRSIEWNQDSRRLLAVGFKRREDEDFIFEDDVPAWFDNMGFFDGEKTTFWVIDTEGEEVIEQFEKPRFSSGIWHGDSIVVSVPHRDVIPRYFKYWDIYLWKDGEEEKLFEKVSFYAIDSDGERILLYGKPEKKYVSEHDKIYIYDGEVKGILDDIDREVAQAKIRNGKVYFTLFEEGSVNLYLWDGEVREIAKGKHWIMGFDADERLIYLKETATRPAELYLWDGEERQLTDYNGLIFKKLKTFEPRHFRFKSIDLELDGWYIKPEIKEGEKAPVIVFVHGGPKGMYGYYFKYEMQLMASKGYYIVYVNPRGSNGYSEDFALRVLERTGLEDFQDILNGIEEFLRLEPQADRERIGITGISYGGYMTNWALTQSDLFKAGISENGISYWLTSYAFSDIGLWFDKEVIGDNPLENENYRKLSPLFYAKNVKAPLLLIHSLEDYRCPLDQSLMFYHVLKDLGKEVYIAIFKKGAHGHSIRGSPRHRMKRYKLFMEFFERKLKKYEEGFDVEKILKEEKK
# [3] = biological target: T3, ApAPEH (ApAAP) (Aeropyrum pernix, UniProt Q9YBQ2); assay: hydrolysis of p-nitroanilide substrate; assay type: biochemical
# T3 construct: gene APE_1547.1; produced by the authors; details only in Data S1 chapter II
# [4] = biological target: T1, pAPEH (porcine liver acylpeptide hydrolase, acylaminoacyl-peptidase, AAP); assay: cryo-EM structure of complex ([…] A); assay type: binding; settings: covalent; Ser587 and His707; 10-fold molar excess, pH 7.5, 37 °C, 1 h
# [5] = biological target: T1, pAPEH (porcine liver acylpeptide hydrolase, acylaminoacyl-peptidase, AAP); assay type: binding; remark: listed apart in the source
# T3 sequence (Q9YBQ2 whole entry): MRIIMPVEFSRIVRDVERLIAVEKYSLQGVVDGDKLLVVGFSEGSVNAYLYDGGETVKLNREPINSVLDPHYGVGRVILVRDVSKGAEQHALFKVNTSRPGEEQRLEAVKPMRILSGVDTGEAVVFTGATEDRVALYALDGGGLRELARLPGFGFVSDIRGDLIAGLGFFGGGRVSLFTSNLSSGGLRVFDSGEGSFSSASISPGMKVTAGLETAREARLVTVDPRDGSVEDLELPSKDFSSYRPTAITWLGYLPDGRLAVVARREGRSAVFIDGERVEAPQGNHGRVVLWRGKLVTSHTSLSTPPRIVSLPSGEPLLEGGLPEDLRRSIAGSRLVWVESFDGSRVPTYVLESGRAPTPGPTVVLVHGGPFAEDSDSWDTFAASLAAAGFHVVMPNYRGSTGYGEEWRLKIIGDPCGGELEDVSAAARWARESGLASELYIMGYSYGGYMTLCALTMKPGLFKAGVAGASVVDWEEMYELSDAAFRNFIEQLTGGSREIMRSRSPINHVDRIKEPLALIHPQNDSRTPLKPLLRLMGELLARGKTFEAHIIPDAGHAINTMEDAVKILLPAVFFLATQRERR
structure (smiles),measurement,setting,value
"COP(=O)(OC)OC=C(Cl)Cl [ligand 2, dichlorvos]",cryo-EM structure of complex (2.65 A),[1],Dimethoxy‐phosphate (DMP) residue of dichlorvos is bound covalently to the active Ser587
CC(=O)N[C@@H](CC(C)C)C(=O)Nc1ccc([N+](=O)[O-])cc1 [Ac-Leu-pNA],hydrolysis of p-nitroanilide substrate,[2],archaeal variants are quite selective toward their specific substrate Ac‐Leu‐pNA
same,hydrolysis of p-nitroanilide substrate,[3],archaeal variants are quite selective toward their specific substrate Ac‐Leu‐pNA
"CC(=O)N[C@@H](C)C(=O)CCl [ligand 1, acetyl-alanyl-chloromethyl ketone]",cryo-EM structure of complex (3.19 A),[4],bound covalently to the active Ser587 and His707 (Figure 2a) of each monomer
"NCCc1ccc(S(=O)(=O)F)cc1 [ligand 3, 4-(2-aminoethyl)benzenesulfonyl fluoride]",cryo-EM structure of complex (2.78 A),[5],thus the inhibitor directly coordinates to the active Ser
